Laboratory results taken from patent publication US12062444B2, “Methods and compositions related to triple-negative breast cancer” (THE UNIVERSITY OF CHICAGO, priority 2017, dated 2024).
“Also recorded” adds a separate entry of the source. Like-named read-outs stand apart in the source and are kept apart here.

Experiments:
[1] = target: T1, GR LBD (Homo sapiens, UniProt P04150); assay: Ligand titration assay via fluorescence polarimetry (displacement of F-Dex); assay type: binding; conditions: for Fit of FP dose response curve (half-maximal FP signal): log(inhibitor) vs. normalized response, FIG. 7
T1 construct: The wild-type GR-LBD (amino acid residues 522-777) was cloned into a pFASTBAC plasmid; 6X-His (TEV-cleavable) (cleaved yes); made in house; host or cells: SF9 insect cells (baculovirus, pFASTBAC)
T1 sequence (P04150 522-777): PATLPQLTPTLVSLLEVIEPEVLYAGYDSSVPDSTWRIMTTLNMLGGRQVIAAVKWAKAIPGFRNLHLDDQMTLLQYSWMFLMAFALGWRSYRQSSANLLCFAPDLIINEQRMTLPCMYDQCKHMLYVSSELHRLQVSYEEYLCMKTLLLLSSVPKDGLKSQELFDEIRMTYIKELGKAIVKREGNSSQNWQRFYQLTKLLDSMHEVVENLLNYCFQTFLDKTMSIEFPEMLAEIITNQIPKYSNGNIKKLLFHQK
Description: SF9 insect cells were transfected with recombinant bacmid and virus (collected after 6 days) was amplified prior to protein expression. […] GR-LBD was purified first using Ni-affinity chromatography followed by overnight dialysis with TEV protease to remove the His tag. Extensive dialysis into 20 mM TRIS pH 8.0, 500 mM NaCl, 5% glycerol, 0.1% CHAPS, 0.25 mM TCEP was performed to obtain non-ligand-bound GR LBD. […] The purified proteins were concentrated to 5 mg/ml, flash frozen in 50 ul aliquots in N2(l), and stored at −80C.
GR LBD was diluted in assay buffer (20 mM TRIS pH 7.5, 50 mM NaCl, 0.25 mM TCEP) to a concentration of 50 nM. […] Triplicate FP measurements were scaled to maximal FP and averaged for each ligand concentration.

[2] = target: T2, GR (Homo sapiens, UniProt P04150); conditions: cited from earlier work
T2 sequence (P04150 1-777): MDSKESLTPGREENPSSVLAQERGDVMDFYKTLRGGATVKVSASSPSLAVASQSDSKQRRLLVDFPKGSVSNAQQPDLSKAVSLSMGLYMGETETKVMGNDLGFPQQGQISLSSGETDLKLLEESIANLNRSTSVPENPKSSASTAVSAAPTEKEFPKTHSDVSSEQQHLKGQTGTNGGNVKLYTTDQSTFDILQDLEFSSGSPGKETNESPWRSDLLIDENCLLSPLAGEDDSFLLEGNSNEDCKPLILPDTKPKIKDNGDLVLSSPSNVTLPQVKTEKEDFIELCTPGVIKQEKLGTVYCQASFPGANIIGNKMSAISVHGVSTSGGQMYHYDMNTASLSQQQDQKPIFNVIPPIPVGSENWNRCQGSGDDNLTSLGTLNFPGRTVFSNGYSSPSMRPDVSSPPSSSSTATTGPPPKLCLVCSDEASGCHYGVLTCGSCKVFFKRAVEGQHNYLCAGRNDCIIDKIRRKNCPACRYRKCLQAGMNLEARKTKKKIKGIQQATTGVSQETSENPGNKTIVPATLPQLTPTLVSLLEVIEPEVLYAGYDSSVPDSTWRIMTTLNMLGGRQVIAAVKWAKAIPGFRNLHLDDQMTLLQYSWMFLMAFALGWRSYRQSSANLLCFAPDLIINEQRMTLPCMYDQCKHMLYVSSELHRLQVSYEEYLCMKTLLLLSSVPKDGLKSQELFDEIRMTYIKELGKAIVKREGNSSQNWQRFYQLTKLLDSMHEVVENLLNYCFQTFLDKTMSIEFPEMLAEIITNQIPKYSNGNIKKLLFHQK

[3] = system: GR-regulated gene expression in MDA-MB-231 cells; assay: Gene expression microarray and analysis; assay type: cell-based, human
Description: MDA-MB-231 cells were grown to 80% confluence in 15-cm dishes in DMEM with 10% FBS. […] Following compound exposure, cells were washed in PBS, and lysed in RNA lysis buffer (Qiagen) overnight at -80° C. RNA extraction, with accompanying DNase treatment, was performed using the RNeasy kit (Qiagen) following the manufacturer's protocol. […] The University of Chicago Genomics Core facility carried out the reverse transcription on the samples, followed by microarray using the Affymetrix Human U133 Plus 2.0 platform. […] A principal components analysis (PCA) was performed using the prcomp function in R (Q-mode PCA using singular value decomposition). […] Dex-regulated genes were overlapped with a list of n=5,170 differentially-expressed tumor-derived genes (in the same direction) from GR-high versus GR-low BCs (52). Ingenuity Pathway Analysis (Qiagen) of the n=462 patient-relevant and antagonist-inhibited genes was performed to obtain Activation Z-scores of the most significant Diseases and Biofunctions (cell functions).

[4] = system: GR chromatin association in MDA-MB-231 cells; assay: GR ChIP-sequencing and analysis; assay type: cell-based, human; conditions: 100 nM each, 60 minutes, normalized to vehicle
Description: MDA-MB-231 cells were grown to 80% confluence in 15-cm dishes in DMEM with 10% FBS, followed by 48h in DMEM supplemented with 2.5% charcoal-stripped FBS. […] Cells were cross-linked with 1% formaldehyde, quenched with glycine (final concentration of […]), and harvested. After cell lysis with ChIP lysis buffer (Magna ChIP A Chromatin Immunoprecipitation Kit, EMD Millipore), cells were sonicated to achieve the majority of DNA fragments between 200-400 bp. Input samples were preserved at -80° C. […] Following manufacturer's protocol, chromatin was eluted from GR ChIP and input samples. Library build and sequencing was performed at the University of Oregon Genomics Core facility using the NextSeq 500 sequencer. Quality control on sequences and adapter sequencing trimming was performed using Kapa Biosystems Illumina Library Quantification Kit. ChIP-seq analysis was carried out using the Galaxy platform (usegalaxy.org (111)). […] GR peaks for each treatment were normalized to its own input control sample. […] Selected GR peak locations in hg19 and GR peak maps were also individually analyzed using Integrative Genomics Viewer, IGV (Broad Institute (116)).

[5] = system: MDA-MB-231 cells
Description: (§1) After compound treatment, cells were fixed in 10% trichloroacetic acid (TCA) at 4° C. overnight. […] Absorbance at λ=510 nm was measured, and relative percentage dead/alive cells was calculated based on minimal and maximal optical densities measured per plate. The experiment was performed in three biological replicates per cell line. P-values comparing the means of cell death percentages were obtained using the two-sample Student's t-test (Graphpad).

[6] = system: SUM-159-PT cells; conditions: Pac 10 nM, Dex 100 nM, C297 1 μM; 72 hours
Description: as §1

[7] = system: MDA-MB-231 tumor xenograft; assay: Murine TNBC xenograft, tumor re-growth after treatment; assay type: in vivo, SCID mice
Description: MDA-MB-231 tumors were established in the right pectoral mammary gland of n=23 five- or six-week old female SCID mice (Taconic). Tumor volume was measured by caliper and then calculated using the elliptical volume equation (43). […] Tumor volume was measured by caliper until reaching a volume of approximately 2000 mm^3 or 40 days post-treatment initiation. Tumor data were analyzed using the repeated measures ANOVA using SigmaPlot 11.2 (Systat Software), and p-values between treatment groups over time were obtained using the Holm-Sidak post-hoc test.
Next, we studied the in vivo effect of GR activity in paclitaxel-treated GR+TNBC-bearing female SCID mice (n=23). MDA-MB-231 xenograft tumors were established subcutaneously in the mammary fat pad of 6-week old female mice. […] The mice were treated daily for five days with intraperitoneally with C297 (or vehicle), one hour prior to paclitaxel. The one-hour pre-treatment of the GR modulator was intended to compete with endogenous GC (murine corticosterone and cortisol (68)) bound to the tumor cell GR LBD. The 5 sequential dosing was selected to mimic an intensive adjuvant chemotherapy schedule often used in early-stage TNBC. Following cessation of the 5d treatment, time to tumor xenograft re-growth was measured as a readout for time to relapse post-treatment (43, 46).

[8] = target: T3, mineralocorticoid receptor (Homo sapiens, UniProt P08235); conditions: cited from earlier work
T3 sequence (P08235 1-984): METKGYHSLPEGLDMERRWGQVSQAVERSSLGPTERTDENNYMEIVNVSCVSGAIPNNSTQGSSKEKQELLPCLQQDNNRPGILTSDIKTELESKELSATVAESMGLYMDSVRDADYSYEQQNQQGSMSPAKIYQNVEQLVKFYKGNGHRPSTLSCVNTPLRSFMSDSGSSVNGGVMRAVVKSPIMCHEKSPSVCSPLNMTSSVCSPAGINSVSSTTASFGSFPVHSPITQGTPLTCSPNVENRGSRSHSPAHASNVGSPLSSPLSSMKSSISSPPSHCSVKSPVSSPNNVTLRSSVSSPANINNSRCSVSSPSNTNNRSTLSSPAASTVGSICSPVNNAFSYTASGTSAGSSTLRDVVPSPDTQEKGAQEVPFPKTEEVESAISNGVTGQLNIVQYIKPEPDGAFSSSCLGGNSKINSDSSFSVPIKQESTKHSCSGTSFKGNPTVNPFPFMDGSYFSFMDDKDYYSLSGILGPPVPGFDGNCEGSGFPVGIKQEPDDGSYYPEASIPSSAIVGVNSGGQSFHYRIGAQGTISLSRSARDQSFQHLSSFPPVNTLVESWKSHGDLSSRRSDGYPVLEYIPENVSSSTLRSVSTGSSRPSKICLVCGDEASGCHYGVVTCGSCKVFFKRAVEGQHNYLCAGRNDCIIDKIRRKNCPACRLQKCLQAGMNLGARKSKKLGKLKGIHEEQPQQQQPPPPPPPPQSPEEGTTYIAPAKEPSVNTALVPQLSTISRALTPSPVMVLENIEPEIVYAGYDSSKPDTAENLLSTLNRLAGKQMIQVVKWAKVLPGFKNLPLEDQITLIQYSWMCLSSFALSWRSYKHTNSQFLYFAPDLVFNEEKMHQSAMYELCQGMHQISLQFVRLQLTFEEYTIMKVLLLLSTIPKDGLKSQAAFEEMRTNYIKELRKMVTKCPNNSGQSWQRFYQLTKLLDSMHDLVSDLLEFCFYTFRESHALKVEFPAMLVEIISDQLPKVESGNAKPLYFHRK

[9] = 50 nM GR LBD, 10 nM F-Dex, ligand 0 to 4000 nM
[10] = at least 1.3 fold-change over vehicle, 100 nM each, 4, 8 and 12 hours combined

Q: Which “Displacement of fluorescently-labeled Dex (F-Dex) from the GR LBD” value (from here on “Displacement … from the GR LBD”) [1, 9] does the source give for `CNCC(Cl)c1ccc(OC(C)=O)cc1.Cl` (stereo not drawn) [CpdA] here?
A: did not displace F-Dex from the GR LBD

Q: And the “Displacement … from the GR LBD” value ([1]; 50 nM GR LBD, 10 nM F-Dex, ligand 0 to 4000 nM, listed as Compound A)?
A: does not bind to ligand pocket

Q: What about the “Fit of FP dose response curve (half-maximal FP signal)” value (“Fit of FP dose response curve” for short) [1] of the same compound?
A: does not bind the GR LBD

Q: And the “Displacement of H^3-Dex in cell lysates” value [2]?
A: displace H^3-Dex in cell lysates

Q: For `C[C@@H]1C[C@H]2[C@@H]3CCC4=CC(=O)C=C[C@]4(C)[C@@]3(F)[C@@H](O)C[C@]2(C)[C@@]1(O)C(=O)CO` [Dex, dexamethasone], which “Downregulated GC-mediated genes unique to Dex treatment” value ([3]; FIG. 9A) is on record?
A: 41%

Q: What about the “Downregulated GC-mediated genes unique to Dex treatment, number” value ([3]; FIG. 9A) of the same compound?
A: 1321

Q: And the “Upregulated GC-mediated genes unique to Dex treatment” value ([3]; FIG. 9A)?
A: 50%

Q: What about the “Upregulated GC-mediated genes unique to Dex treatment, number” value ([3]; FIG. 9A) of the same compound?
A: 1363

Q: What about the “Number of downregulated genes” value [3, 10] of the same compound?
A: 3,202

Q: What about the “Number of upregulated genes” value [3, 10] of the same compound?
A: 2,719

Q: What about the “Genome-wide GR peaks” value [4] of the same compound?
A: 8,448

Q: And the “Paclitaxel cytotoxicity (percentage cell death)” value ([5]; Pac 10 nM, Dex 100 nM, C297 1 μM, 96 hours)?
A: dampened paclitaxel (10 nM) cytotoxicity

Q: And the “Paclitaxel cytotoxicity (percentage cell death)” value [6]?
A: dampened paclitaxel (10 nM) cytotoxicity

Q: For `CCOC[C@]12Cc3cnn(-c4ccc(F)cc4)c3C=C1CCN(S(=O)(=O)c1ccc(C(F)(F)F)cc1)C2` [C297], which “Displacement … from the GR LBD” value [1, 9] is on record?
A: low nM affinities

Q: What about the “Fit of FP dose response curve” value [1] of the same compound?
A: able to fit data

Q: And the “Tumor re-growth with C297 monotherapy in vivo” value ([7]; C297/Veh versus vehicle control, FIG. 8B)?
A: not cytotoxic; also recorded: did not cause a significant delay in tumor re-growth

Q: What about the “Genes for which both GR modulators antagonized GR induction or repression by at least 25%” value ([3]; 100 nM with 100 nM Dex) of the same compound?
A: 3,066

Q: What about the “Antagonized GR-regulated genes shared with the other antagonist” value ([3]; C297 versus Mif, 100 nM) of the same compound?
A: 87%

Q: And the “Cell viability with C297 treatment alone in vitro” value ([5]; monotherapy, SRB assay, FIG. 8A, cell line not stated)?
A: not cytotoxic; also recorded: did not reduce cell viability

Q: What about the “Paclitaxel cytotoxicity (percentage cell death)” value [6] of the same compound?
A: restored cytotoxic sensitivity; also recorded: modest, but significant, relative increase in paclitaxel cytotoxicity

Q: For `C[C@]12CCC(=O)C=C1CC[C@@H]1[C@@H]2[C@@H](O)C[C@@]2(C)[C@H]1CC[C@]2(O)C(=O)CO` [cortisol], which “Fit of FP dose response curve” value [1] is on record?
A: able to fit data

Q: What does the source list for `O=c1[nH]c(=O)c(Cc2cccc(C(F)(F)F)c2)c([C@H]2CC[C@H](c3ccccc3)CC2)[nH]1` [C335]?
A: Displacement of fluorescently-labeled Dex (F-Dex) from the GR LBD [1, 9]: low nM affinities; Fit of FP dose response curve (half-maximal FP signal) [1]: able to fit data; Binding to the mineralocorticoid receptor [8]: bind the mineralocorticoid receptor

Q: With `C[C@]12CCC(=O)C[C@@H]1CC[C@@H]1[C@@H]2CC[C@]2(C)[C@@H](O)CC[C@@H]12` [DHT, dihydrotestosterone] as the compound, how does the “Displacement … from the GR LBD” value [1] read?
A: did not observe GC competition

Q: Which Post-treatment tumor re-growth ([7]; C297 20 mg/kg/day one hour prior to pac 10 mg/kg/day, five days) does the source give for `CC(=O)O[C@H]1C(=O)[C@@]2(C)[C@H]([C@H](OC(=O)c3ccccc3)[C@]3(O)C[C@H](OC(=O)[C@H](O)[C@@H](NC(=O)c4ccccc4)c4ccccc4)C(C)=C1C3(C)C)[C@]1(OC(C)=O)CO[C@@H]1C[C@@H]2O` [Pac, paclitaxel] here?
A: significantly smaller than vehicle

Q: What about the “Time to tumor re-growth to a 6× increase of tumor volume” value ([7]; C297 20 mg/kg/day one hour prior to pac 10 mg/kg/day, five days, i.p.) of the same compound?
A: 27 days
